Data published in patent US20220008372A1, “BACLOFEN FOR USE IN THE TOPICAL TREATMENT OF LOCALIZED MUSCULOSKELETAL PAIN” (ASSISTANCE PUBLIQUE - HOPITAUX DE PARIS, priority 2018, published 2022).

test system: patients with localized musculoskeletal pain; assay: Example 1: topical Baclofen cream in 19 patients, pain intensity on Visual Analogue Scale; format: in vivo, human; settings: patient, facioscapulohumeral muscular dystrophy, before applying topical baclofen
Protocol: The cream was prepared with Baclofen powder mixed with a Pentravan® Base (Fagron) at a final concentration of 10% w/w.
The intensity of pain was rated using a Visual Analogue Scale (VAS) from 1 to 10.

Row | SMILES | efficiency of earlier pain treatment
1 | CC(C(=O)O)c1cccc(C(=O)c2ccccc2)c1 (stereo not drawn) [ketoprofene] | poor efficiency
2 | CN(C)CCC=C1c2ccccc2CCc2ccccc21 [amitriptyline] | poor efficiency
3 | NCC1(CC(=O)O)CCCCC1 [gabapentine] | poor efficiency
4 | CC(=O)Nc1ccc(O)cc1 [paracetamol] | poor efficiency
5 | COc1cccc(C2(O)CCCCC2CN(C)C)c1 (stereo not drawn) [tramadol] | poor efficiency

test system: patients with localized musculoskeletal pain; assay: Example III: case reports of 3 patients applying topical baclofen; format: in vivo, human; settings: human, in vivo

Row | SMILES | efficiency of earlier pain treatment
6 | COc1c(O[C@@H]2O[C@H](CO)[C@@H](O)[C@H](O)[C@H]2O)cc2c(c1OC)-c1ccc(SC)c(=O)cc1[C@@H](NC(C)=O)CC2 [Thiocolchicoside] | poor efficiency
7 | NCC(CC(=O)O)c1ccc(Cl)cc1 (stereo not drawn) [baclofen per os, β-(4-chlorophenyl)-γ-aminobutyric acid] | poor efficiency

same assay, conditions: patient, Facioscapulohumeral muscular dystrophy, before topical baclofen

Row | SMILES | efficiency of earlier pain treatment
8 | C=CC1CN2CCC1CC2C(O)c1ccnc2ccc(OC)cc12.O=C(O)c1ccccc1 (stereo not drawn) [Quinine benzoate] | poor efficiency
9 | CN(C)CCC=C1c2ccccc2CCc2ccccc21 [amitriptyline] | poor efficiency
